# Laboratory results as given in patent publication US4533665A, “[[Bis(aryl)methylene]-1-piperidinyl]alkyl-pyrimidinones” (Janssen Pharmaceutica, priority 1984, dated 1985).
# Structures can show the parent of a compound that is named as a salt.
# Target: T1, S2-receptor (Rattus norvegicus, UniProt P14842)
# T1 construct: Caudal arteries from fasted male rats; from tissue; host or cells: rat caudal artery, helical strips
# Test: antagonistic activity on the effect of serotonin on the caudal artery of the rat (caudal artery test)
# Conditions: rat caudal artery strips; serotonin 40 ng/ml; 5 minutes after adding the drug; read-out: ED50 (minimal concentration which reduces the amplitude of the serotonin-induced contraction to at least 50% of its normal value) (converted)
# Experimental: ANTAGONISTIC ACTIVITY ON THE EFFECT OF SEROTONIN ON THE CAUDAL ARTERY OF THE RAT
# Caudal arteries from fasted male rats (210-235 g) were used in the test. […] Submaximal contractions of the arterial strips were produced by adding single doses of serotonin (40 ng/ml) to the organ bath for 2 minutes with each time an interval of 10 minutes. The amplitude of the contraction was measured before and 5 minutes after adding the drug. After washing out, the agonist was added again three times in order to see whether the contraction was restored and normalized. […] In this connection the ED50 -values are the minimal concentrations of the concerned drugs which reduce the amplitude of the contraction to at least 50% of its normal value.
# T1 sequence (P14842 whole entry): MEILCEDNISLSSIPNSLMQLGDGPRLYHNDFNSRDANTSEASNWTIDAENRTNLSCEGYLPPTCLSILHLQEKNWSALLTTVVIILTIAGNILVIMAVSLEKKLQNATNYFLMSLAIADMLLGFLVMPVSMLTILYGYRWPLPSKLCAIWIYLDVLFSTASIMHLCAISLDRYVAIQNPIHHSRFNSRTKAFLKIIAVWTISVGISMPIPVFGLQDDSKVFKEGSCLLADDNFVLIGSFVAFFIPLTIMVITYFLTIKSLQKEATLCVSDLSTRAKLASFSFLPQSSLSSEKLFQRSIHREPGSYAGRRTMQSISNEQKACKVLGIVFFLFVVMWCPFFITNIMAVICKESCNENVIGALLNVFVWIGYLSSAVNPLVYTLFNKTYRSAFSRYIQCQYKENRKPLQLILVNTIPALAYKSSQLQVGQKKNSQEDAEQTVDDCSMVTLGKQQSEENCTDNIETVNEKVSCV
row,Structure (SMILES),IC50 [pM]
1,Cc1nc2sccn2c(=O)c1CCN1CCC(=C(c2ccc(F)cc2)c2ccc(Cl)cc2)CC1 [Compound 9],< 1.28
2,Cc1nc2sccn2c(=O)c1CCN1CCC(=C(c2ccc(F)cc2)c2cccnc2)CC1 [Compound 53],2.82
3,Cc1nc2n(c(=O)c1CCN1CCC(=C(c3ccc(O)cc3)c3ccc(F)cc3)CC1)CCCS2 [Compound 37],2.64
4,Cc1nc2sccn2c(=O)c1CCN1CCC(=C(c2ccc(F)cc2)c2cccc(Cl)c2)CC1 [Compound 6],1.28
5,Cc1nc2sccn2c(=O)c1CCN1CCC(=C(c2ccc(F)cc2)c2cccc(F)c2)CC1 [Compound 25],0.293
6,Cc1nc2n(c(=O)c1CCN1CCC(=C(c3ccc(Cl)cc3)c3ccc(Cl)cc3)CC1)CCCC2 [Compound 52],1.4
7,Cc1nc2sccn2c(=O)c1CCN1CCC(=C(c2ccc(F)cc2)c2cccc(C(F)(F)F)c2)CC1 [Compound 21],1.19
8,Cc1nc2sccn2c(=O)c1CCN1CCC(=C(c2ccc(Cl)cc2)c2ccc(Cl)cc2)CC1 [Compound 48],4.31
9,Cc1nc2n(c(=O)c1CCN1CCC(=C(c3ccc(F)cc3)c3ccc(F)cc3)CC1)CCCC2 [Compound 3],1.18
10,Cc1nc2ccccn2c(=O)c1CCN1CCC(=C(c2ccc(F)cc2)c2cccc(F)c2)CC1 [Compound 36],0.679
11,Cc1ccc(C(=C2CCN(CCc3c(C)nc4n(c3=O)CCCC4)CC2)c2ccc(F)cc2)cc1 [Compound 46],2.76
12,Cc1cccc(C(=C2CCN(CCc3c(C)nc4ccccn4c3=O)CC2)c2ccc(F)cc2)c1 [Compound 15],1.35
13,Cc1nc2ccccn2c(=O)c1CCN1CCC(=C(c2ccc(O)cc2)c2ccc(F)cc2)CC1 [Compound 20],2.66
14,Cc1nc2ccccn2c(=O)c1CCN1CCC(=C(c2ccccc2)c2ccccc2)CC1 [Compound 18],< 1.45
15,Cc1nc2n(c(=O)c1CCN1CCC(=C(c3ccc(F)cc3)c3cccc(Cl)c3)CC1)CCS2 [Compound 5],0.323
16,Cc1ccc(C(=C2CCN(CCc3c(C)nc4n(c3=O)CCCS4)CC2)c2ccc(F)cc2)cc1 [Compound 40],1.14
17,Cc1nc2ccccn2c(=O)c1CCN1CCC(=C(c2ccc(F)cc2)c2cccc(Cl)c2)CC1 [Compound 16],1.29
18,Cc1nc2sccn2c(=O)c1CCN1CCC(=C(c2ccc(F)cc2)c2ccc(Br)cc2)CC1 [Compound 34],1.04
19,"Cc1nc2scc(C)n2c(=O)c1CCN1CCC(=C(c2ccc(O)cc2)c2ccc(F)cc2)CC1 [Compound 23, 6-[2-[4-[(4-fluorophenyl)-(4-hydroxyphenyl)methylene]-1-piperidinyl]ethyl]-3,7-dimethyl-5H-thiazolo[3,2-a]pyrimidin-5-one]",1.14
20,Cc1ccc(C(=C2CCN(CCc3c(C)nc4ccccn4c3=O)CC2)c2ccc(C)cc2)cc1 [Compound 43],1.53
21,Cc1nc2n(c(=O)c1CCN1CCC(=C(c3ccc(F)cc3)c3cccc(F)c3)CC1)CCS2 [Compound 28],1.17
22,Cc1ccc(C(=C2CCN(CCc3c(C)nc4sccn4c3=O)CC2)c2ccc(C)cc2)cc1 [Compound 26],1.19
23,Cc1nc2n(c(=O)c1CCN1CCC(=C(c3ccc(F)cc3)c3ccc(Cl)cc3)CC1)CCCC2 [Compound 11],2.54
24,Cc1nc2n(c(=O)c1CCN1CCC(=C(c3ccc(F)cc3)c3ccc(Cl)cc3)CC1)CCS2 [Compound 22],2.62
25,Cc1nc2n(c(=O)c1CCN1CCC(=C(c3ccc(F)cc3)c3cccc(F)c3)CC1)CCCC2 [Compound 30],1.18
26,Cc1nc2n(c(=O)c1CCN1CCC(=C(c3ccc(F)cc3)c3ccc(Br)cc3)CC1)CCCC2 [Compound 35],1.32
27,Cc1cccc(C(=C2CCN(CCc3c(C)nc4sccn4c3=O)CC2)c2ccc(F)cc2)c1 [Compound 14],1.33

# More lines, now with the values ahead:
row,IC50 [pM],Structure (SMILES)
1,4.51,Cc1nc2ccccn2c(=O)c1CCN1CCC(=C(c2ccc(F)cc2)c2ccc(F)cc2)C(O)C1 (centres unmarked) [Compound 61]
2,2.88,Cc1nc2ccccn2c(=O)c1CCN1CCC(=C(c2ccccc2)c2ccc(O)cc2)CC1 [Compound 78]
3,2.84,Cc1nc2sccn2c(=O)c1CCN1CCC(=C(c2ccccc2)c2ccc(O)cc2)CC1 [Compound 80]
4,0.63,Cc1nc2n(c(=O)c1CCN1CCC(=C(c3ccccc3)c3cccc(C(F)(F)F)c3)CC1)CCCC2 [Compound 86]
5,1.11,"COc1ccc(C(=C2CCN(CCc3c(C)nc4scc(C)n4c3=O)CC2)c2ccc(F)cc2)cc1 [Compound 142, 6-[2-[4-[(4-fluorophenyl)(4-methoxyphenyl)methylene]-1-piperidinyl]ethyl]-3,7-dimethyl-5H-thiazolo[3,2-a]pyrimidin-5-one]"
6,1.13,Cc1nc2n(c(=O)c1CCN1CCC(=C(c3ccc(F)cc3)c3ccc(F)cc3)CC1)CCCS2 [Compound 114]
7,0.678,Cc1ccc(C(=C2CCN(CCc3c(C)nc4n(c3=O)CCCS4)CC2)c2ccccc2)cc1 [Compound 128]
8,1.06,"COc1ccc(C(=C2CCN(CCc3c(C)nc4sccn4c3=O)CC2)c2ccc(F)cc2)cc1 [Compound 144, 6-[2-[4-[(4-fluorophenyl)(4-methoxyphenyl)methylene]-1-piperidinyl]ethyl]-7-methyl-5H-thiazolo[3,2-a]pyrimidin-5-one monohydrochloride]"
9,0.705,Cc1ccc(C(=C2CCN(CCc3c(C)nc4n(c3=O)CCCC4)CC2)c2ccccc2)cc1 [Compound 71]
10,2.54,"Cc1nc2n(c(=O)c1CCN1CCC(=C(c3ccc(Cl)cc3)c3ccc(Cl)cc3)CC1)CCS2 [Compound 110, 6-[2-[4-[bis(4-chlorophenyl)methylene]-1-piperidinyl]ethyl]-2,3-dihydro-7-methyl-5H-thiazolo[3,2-a]pyrimidin-5-one]"
11,0.705,Cc1ccccc1C(=C1CCN(CCc2c(C)nc3n(c2=O)CCCC3)CC1)c1ccccc1 [Compound 92]
12,0.633,Cc1nc2sc(C)c(C)n2c(=O)c1CCN1CCC(=C(c2ccc(F)cc2)c2ccc(F)cc2)CC1 [Compound 127]
13,0.702,Cc1cccc(C(=C2CCN(CCc3c(C)nc4sccn4c3=O)CC2)c2ccccc2)c1 [Compound 69]
14,1.3,"COc1ccc(C(=C2CCN(CCc3c(C)nc4ccccn4c3=O)CC2)c2ccc(F)cc2)cc1 [Compound 143, 3-[2-[4-[(4-fluorophenyl)(4-methoxyphenyl)methylene]-1-piperidinyl]ethyl]-2-methyl-4H-pyrido[1,2-a]pyrimidin-4-one dihydrochloride.monohydrate]"
15,< 4.91,Cc1nc2sccn2c(=O)c1CCN1CCC(=C(c2ccccc2)c2cccc(C(F)(F)F)c2)CC1 [Compound 89]
16,2.56,COC1CN(CCc2c(C)nc3sccn3c2=O)CCC1=C(c1ccc(F)cc1)c1ccc(F)cc1 (centres unmarked) [Compound 63]
17,2.73,Cc1nc2n(c(=O)c1CCN1CCC(=C(c3ccccc3)c3ccc(F)cc3)CC1)CCCS2 [Compound 115]
18,1.34,Cc1nc2ccccn2c(=O)c1CCN1CCC(=C(c2ccc(F)cc2)c2ccc(F)cc2)CC1 [Compound 58]
19,2.63,Cc1nc2sccn2c(=O)c1CCN1CCC(=C(c2ccc(F)cc2)c2ccc(F)cc2)C(O)C1 (centres unmarked) [Compound 60]
20,< 5.32,Cc1ccccc1C(=C1CCN(CCc2c(C)nc3scc(C)n3c2=O)CC1)c1ccccc1 [Compound 81]
21,0.681,Cc1cccc(C(=C2CCN(CCc3c(C)nc4scc(C)n4c3=O)CC2)c2ccccc2)c1 [Compound 68]
22,2.45,"Cc1nc2n(c(=O)c1CCN1CCC(=C(c3ccccc3)c3ccc(F)cc3)CC1)CCCC2 [Compound 137, 3-[2-[4-[(4-fluorophenyl)phenylmethylene]-1-piperidinyl]ethyl]-6,7,8,9-tetrahydro-2-methyl-4H-pyrido[1,2-a]pyrimidin-4-one dihydrochloride]"
23,2.68,"Cc1ccc(C(=C2CCN(CCc3c(C)nc4n(c3=O)CCCS4)CC2)c2ccc(C)cc2)cc1 [Compound 108, 7-[2-[4-[bis(4-methylphenyl)methylene]-1-piperidinyl]ethyl]-3,4-dihydro-8-methyl-2H,6H-pyrimido[2,1-b][1,3]thiazin-6-one]"
24,2.86,Cc1nc2ccccn2c(=O)c1CCN1CCC(=C(c2ccc(F)cc2)c2cccnc2)CC1 [Compound 57]
25,2.09,"Cc1nc2n(c(=O)c1CCN1CCC(=C(c3ccc(F)cc3)c3cccc(C(F)(F)F)c3)CC1)CCCC2 [Compound 140, 3-[2-[4-[(4-fluorophenyl)[3-(trifluoromethyl)phenyl]methylene]-1-piperidinyl]ethyl]-6,7,8,9-tetrahydro-2-methyl-4H-pyrido[1,2-a]pyrimidin-4-one dihydrochloride]"
26,2.65,"Cc1cccc(C(=C2CCN(CCc3c(C)nc4n(c3=O)CCCC4)CC2)c2ccc(F)cc2)c1 [Compound 138, 3-[2-[4-[(4-fluorophenyl)(3-methylphenyl)methylene]-1-piperidinyl]ethyl]-6,7,8,9-tetrahydro-2-methyl-4H-pyrido[1,2-a]pyrimidin-4-one]"
27,6.11,Cc1nc2n(c(=O)c1CCN1CCC(=C(c3ccc(F)cc3)c3cccnc3)CC1)CCCC2 [Compound 54]
28,0.651,"Cc1nc2scc(C)n2c(=O)c1CCN1CCC(=C(c2ccc(F)cc2)c2ccc(F)cc2)CC1 [Compound 112, 6-[2-[4-[bis(4-fluorophenyl)methylene]-1-piperidinyl]ethyl]-3,7-dimethyl-5H-thiazolo[3,2-a]pyrimidin-5-one]"
29,0.699,"Cc1nc2n(c(=O)c1CCN1CCC(=C(c3ccccc3)c3ccccc3)CC1)CCCS2 [Compound 104, 7-[2-[4-(diphenylmethylene)-1-piperidinyl]ethyl]-3,4-dihydro-8-methyl-2H,6H-pyrimido[2,1-b][1,3]-thiazin-6-one]"
